A word on the Emax: it is the greatest response seen or fitted, relative to the assay's reference. One may read the EC50 as the concentration giving half of the maximal effect.

This assay has as its target T1, human mAChR M4 (Homo sapiens, UniProt P08173).
T1 construct: expressed in transfected cells
T1 sequence (P08173 1-479): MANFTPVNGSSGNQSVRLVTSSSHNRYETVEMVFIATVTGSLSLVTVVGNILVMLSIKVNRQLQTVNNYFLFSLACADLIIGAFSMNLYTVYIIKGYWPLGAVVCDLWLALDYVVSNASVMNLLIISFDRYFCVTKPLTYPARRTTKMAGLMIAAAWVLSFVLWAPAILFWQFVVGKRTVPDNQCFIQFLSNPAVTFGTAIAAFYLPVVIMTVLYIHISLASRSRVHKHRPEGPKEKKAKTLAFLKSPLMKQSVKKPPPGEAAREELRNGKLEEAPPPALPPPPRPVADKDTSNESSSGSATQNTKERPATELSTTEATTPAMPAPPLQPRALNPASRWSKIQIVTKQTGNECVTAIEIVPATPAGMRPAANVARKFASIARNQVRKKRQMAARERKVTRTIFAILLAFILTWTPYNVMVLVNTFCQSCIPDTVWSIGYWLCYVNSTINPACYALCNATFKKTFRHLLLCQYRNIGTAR
The assay can be described thus: mAChR M4 cell-based functional assay (calcium mobilization, CHO-K1 hM4-Gqi5 cells). To be noted: for Emax at 30 µM: CHO-K1, % ACh maximum at 30 μM, human M4; for EC50: positive allosteric modulator activity, increase in the EC20 acetylcholine response, CHO-K1 hM4-Gqi5 cells, read-out: Human M4 EC50. In short, it runs like this: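 CHO-K1 cells stably expressing human M4 with chimeric Gqi5, loaded with Fluo-4 AM; compounds given as 11-point 1:3 curves and calcium flux read on FDSS at 1 Hz. Acetylcholine EC20 added at 144 s, EC80 at 230 s; agonist, PAM (EC20 potentiation) and antagonist (EC80 inhibition) EC50/Emax from four-parameter fits.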
Background: Calcium assays in cells follow changes in intracellular calcium, usually with a dye or a luminescent sensor.

Consider `Cc1cnc2c(c1)CN(c1nnc(C(=O)NCc3ccncc3C)c(C)c1C)CC2` [Example 472, 4,5-dimethyl-6-(3-methyl-7,8-dihydro-1,6-naphthyridin-6(5H)-yl)-N-((3-methylpyridin-4-yl)methyl)pyridazine-3-carboxamide], for which the Emax at 30 µM stood at 99% and the 50% effective concentration (EC50) is 0.071 µM.
The corresponding values for `Cc1cc(C(=O)NC2CC(F)(F)C2)cnc1N1CCc2ncc(-c3cn(C)nc3C)cc2C1` [Example 476, N-(3,3-difluorocyclobutyl)-6-(3-(1,3-dimethyl-1H-pyrazol-4-yl)-7,8-dihydro-1,6-naphthyridin-6(5H)-yl)-5-methylnicotinamide] are 67% and 0.752 µM.
The corresponding values for `Cc1cc(C(=O)N2CC3(COC3)C2)nnc1N1CCc2ncc(Nc3ccnn3C)cc2C1` [Example 561, (5-methyl-6-(3-((1-methyl-1H-pyrazol-5-yl)amino)-7,8-dihydro-1,6-naphthyridin-6(5H)-yl)pyridazin-3-yl)(2-oxa-6-azaspiro[3.3]heptan-6-yl)methanone] are 82% and 0.169 µM.
The corresponding values for `Cc1cc(C(=O)NCc2cncs2)cnc1N1CCc2ncc(-c3ccc(N(C)C)nc3)cc2C1` [Example 485, 6-(3-(6-(dimethylamino)pyridin-3-yl)-7,8-dihydro-1,6-naphthyridin-6(5H)-yl)-5-methyl-N-(thiazol-5-ylmethyl)nicotinamide] are 79% and 0.247 µM.
`Cc1cc(C(=O)NCc2ccc(-n3ccnc3)nc2)cnc1N1CCc2ncccc2C1` [compound 148, 6-(7,8-dihydro-5H-1,6-naphthyridin-6-yl)-N-[(6-imidazol-1-yl-3-pyridyl)methyl]-5-methyl-pyridine-3-carboxamide]: the Emax at 30 µM stood at 67% and the EC50 amounted to 3.54 µM.
With `Cc1cc(C#N)nnc1N1CCc2ncc(-c3cn(C)nc3C)cc2C1` [Example 323, 6-(3-(1,3-dimethyl-1H-pyrazol-4-yl)-7,8-dihydro-1,6-naphthyridin-6(5H)-yl)-5-methylpyridazine-3-carbonitrile], the Emax at 30 µM turned out to be 86% and the EC50 was found to be 0.764 µM.
For `Cc1cc(C(=O)NCc2ccc3c(c2)CC(=O)N3)cnc1N1CCc2ncccc2C1` [compound 154, 6-(7,8-dihydro-5H-1,6-naphthyridin-6-yl)-5-methyl-N-[(2-oxoindolin-5-yl)methyl]pyridine-3-carboxamide], in that order: 47% and 6.56 µM.
The corresponding values for `Cc1nc(Cl)c(C)c(N2CCc3ncc(Oc4ccccc4F)cc3C2)n1` [compound 204, 6-(6-chloro-2,5-dimethyl-pyrimidin-4-yl)-3-(2-fluorophenoxy)-7,8-dihydro-5H-1,6-naphthyridine] are 90% and 0.328 µM.
For `COc1nc(N2CCc3ncc(C(F)(F)F)cc3C2)c(C)cc1C#N` [Example 371, 2-methoxy-5-methyl-6-(3-(trifluoromethyl)-7,8-dihydro-1,6-naphthyridin-6(5H)-yl)nicotinonitrile], in that order: 75% and 4.35 µM.
Consider `Cc1ncc(-c2cnc3c(c2)CN(c2nnc(C#N)c(C)c2C)CC3)s1` [compound 293, 4,5-dimethyl-6-(3-(2-methylthiazol-5-yl)-7,8-dihydro-1,6-naphthyridin-6(5H)-yl)pyridazine-3-carbonitrile], for which the Emax at 30 µM came to 85% and the EC50 came to 0.354 µM.
For the compound `Cc1cc(C#N)nnc1N1Cc2cc(N3CCOCC3)cnc2C(C)C1` (stereo not shown) [Example 404, 5-methyl-6-(8-methyl-3-morpholino-7,8-dihydro-1,6-naphthyridin-6(5H)-yl)pyridazine-3-carbonitrile], the maximal effect (Emax) at 30 µM turned out to be 72% and the EC50 was 0.901 µM.
For `Cc1cc(C(=O)N2CCOCC2)nnc1N1CCc2ncc(N3CCCn4nccc43)cc2C1` [Example 515, (6-(3-(6,7-dihydropyrazolo[1,5-a]pyrimidin-4(5H)-yl)-7,8-dihydro-1,6-naphthyridin-6(5H)-yl)-5-methylpyridazin-3-yl)(morpholino)methanone], in that order: 107% and 0.197 µM.
The corresponding values for `Cc1cc(C#N)cnc1N1Cc2cc(C(F)(F)F)cnc2C(C)C1` (stereo not shown) [Example 347, 5-methyl-6-(8-methyl-3-(trifluoromethyl)-7,8-dihydro-1,6-naphthyridin-6(5H)-yl)nicotinonitrile] are 82% and 0.992 µM.
The corresponding values for `COc1cc(CNC(=O)c2cnc(N3CCc4ncccc4C3)c(C)c2)ccc1F` [compound 152, 6-(7,8-dihydro-5H-1,6-naphthyridin-6-yl)-N-[(4-fluoro-3-methoxy-phenyl)methyl]-5-methyl-pyridine-3-carboxamide] are 64% and 2.12 µM.
As to `Cc1c(C#N)nnc(N2CCc3ncc(-c4cnn(C(F)F)c4)cc3C2)c1C` [Example 326, 6-(3-(1-(difluoromethyl)-1H-pyrazol-4-yl)-7,8-dihydro-1,6-naphthyridin-6(5H)-yl)-4,5-dimethylpyridazine-3-carbonitrile], the Emax at 30 µM was 68% and the EC50 came to 0.611 µM.
Regarding `Cc1cc(C#N)cnc1N1CCc2ncc(N3CCN(C)C(=O)C3)cc2C1` [Example 409, 5-methyl-6-(3-(4-methyl-3-oxopiperazin-1-yl)-7,8-dihydro-1,6-naphthyridin-6(5H)-yl)nicotinonitrile], the Emax at 30 µM was 96% and the EC50 turned out to be 1.1 µM.
For `Cc1cc(C(=O)NCc2cccnc2)cnc1N1CCc2ncccc2C1` [compound 60, 6-(7,8-dihydro-5H-1,6-naphthyridin-6-yl)-5-methyl-N-(3-pyridylmethyl)pyridine-3-carboxamide], in that order: 61% and 4.72 µM.
Regarding `Cc1cc(C(=O)N2CC(F)(F)C2)nnc1N1CCc2ncc(Nc3ccnn3C)cc2C1` [Example 566, (3,3-difluoroazetidin-1-yl)(5-methyl-6-(3-((1-methyl-1H-pyrazol-5-yl)amino)-7,8-dihydro-1,6-naphthyridin-6(5H)-yl)pyridazin-3-yl)methanone], the Emax at 30 µM was 73% and the EC50 was found to be 0.041 µM.
For `Cc1c(C#N)nnc(N2CCc3ncccc3C2)c1C` [compound 118, 6-(7,8-dihydro-5H-1,6-naphthyridin-6-yl)-4,5-dimethyl-pyridazine-3-carbonitrile], the EC50 is 2.82 µM. The Emax (CHO-K1) turned out to be 92%.
Regarding `Cc1nc(Cl)c(C)c(N2CCc3ncc(Oc4ccc5c(c4)OCCO5)cc3C2)n1` [compound 206, 6-(6-chloro-2,5-dimethyl-pyrimidin-4-yl)-3-(2,3-dihydro-1,4-benzodioxin-6-yloxy)-7,8-dihydro-5H-1,6-naphthyridine], the Emax at 30 µM was 77% and the half-maximal effective concentration (EC50) turned out to be 0.534 µM.
The corresponding values for `Cc1cc(C(=O)NC2CCc3ncccc3C2)nnc1N1CCc2ncc(C(F)(F)F)cc2C1` (stereo not shown) [Example 501, 5-methyl-N-(5,6,7,8-tetrahydroquinolin-6-yl)-6-(3-(trifluoromethyl)-7,8-dihydro-1,6-naphthyridin-6(5H)-yl)pyridazine-3-carboxamide] are 109% and 0.127 µM.
`Cc1cc(C(=O)NCc2ccnc3ccccc23)cnc1N1CCc2ncccc2C1` [compound 131, 6-(7,8-dihydro-5H-1,6-naphthyridin-6-yl)-5-methyl-N-(4-quinolylmethyl)pyridine-3-carboxamide]: the Emax at 30 µM was 57% and the EC50 was determined as 0.876 µM.
For `Cc1nn(C)cc1-c1cnc2c(c1)CN(c1nc(Cl)nc3c1COC3)CC2` [compound 285, 2-chloro-4-(3-(1,3-dimethyl-1H-pyrazol-4-yl)-7,8-dihydro-1,6-naphthyridin-6(5H)-yl)-5,7-dihydrofuro[3,4-d]pyrimidine], in that order: 30% and 1.22 µM.
The corresponding values for `Cc1cc(C(=O)N2CC(F)(F)C2)nnc1N1CCc2ncc(CC(F)(F)F)cc2C1` [Example 583, (3,3-difluoroazetidin-1-yl)(5-methyl-6-(3-(2,2,2-trifluoroethyl)-7,8-dihydro-1,6-naphthyridin-6(5H)-yl)pyridazin-3-yl)methanone] are 91% and 0.121 µM.
For `Cc1cc(C#N)nnc1N1CCc2ncc(N3CCCn4nc(C(F)(F)F)cc43)cc2C1` [Example 413, 5-methyl-6-(3-(2-(trifluoromethyl)-6,7-dihydropyrazolo[1,5-a]pyrimidin-4(5H)-yl)-7,8-dihydro-1,6-naphthyridin-6(5H)-yl)pyridazine-3-carbonitrile], in that order: 102% and 0.257 µM.
`Cc1cc(C(=O)NCc2ccncc2F)nnc1N1CCc2ncc(C(F)(F)F)cc2C1` [Example 496, N-((3-fluoropyridin-4-yl)methyl)-5-methyl-6-(3-(trifluoromethyl)-7,8-dihydro-1,6-naphthyridin-6(5H)-yl)pyridazine-3-carboxamide]: the Emax at 30 µM turned out to be 102% and the EC50 was 0.037 µM.

The values are drawn from patent US20250230155A1 (Vanderbilt University, priority 2021, published 2025).
